According to patent US20130064831A1, “IMMUNOTHERAPEUTIC DOSING REGIMENS AND COMBINATIONS THEREOF” (Bristol-Myers Squibb Company, priority 2010, published 2013):

Experiments:
melanoma = settings: cited from earlier work
NSCLC Subjects = assay: CA184041 phase II trial: safety, exposure and discontinuation; settings: in vivo
Procedure: Blinded Study Drug: Ipilimumab 10 mg/kg or matched placebo administered as a single dose intravenously over 90 minutes every 3 weeks (up to 6 doses) as part of induction. Subjects may receive additional maintenance Ipilimumab/placebo at a dose of 10 mg/kg and administered intravenously over 90 minutes every 12 weeks starting 24 weeks after the first Ipilimumab/placebo dose. Dose reductions were not permitted. […] Dose modifications (reductions as well as delays) are as per product label. PARAPLATIN®: AUC=6 administered as a single dose intravenously over 30 minutes every 3 weeks (up to 6 doses). Dose modifications (reductions as well as delays) are as per product label. Treatment with blinded Ipilimumab (active or placebo) proceeded until immune-related tumor progression as defined by the irRC is observed or intolerable toxicity occurs.
Safety was summarized and listed for all treated subjects using the National Cancer Institute (NCI) Common Terminology Criteria for Adverse Events (CTCAE) version 3.0 by treatment arm for each tumor type. All treatment emergent AEs, drug-related treatment emergent AEs, serious AEs and drug-related SAEs were tabulated using worst grade per NCI CTCAE v3.0 criteria by system, organ, class, and preferred term. The listings by subject were produced for all deaths, all SAEs and all AEs leading to discontinuation of study drug. […]

[1] = system: ovarian or prostate cancer; settings: some patients with ovarian or prostate cancer; cited from earlier work

Ipilimumab: fully human IgG1 anti-CTLA-4 monoclonal antibody, CAS 477202-00-9, light/heavy chain variable regions SEQ ID NO:1 and 2
tumor regressions (melanoma; initial studies in patients with melanoma): objective durable tumor regressions
antitumor activity (melanoma; patients with advanced melanoma): demonstrated antitumor activity
potentiation of chemotherapy-related toxicity (NSCLC Subjects): did not potentiate chemotherapy-related toxicity
serum tumor markers [1]: reductions of serum tumor markers
